Test [1] addresses Recombinant His-tagged human PARG protein (Homo sapiens (Human), UniProt Q86W56). Put plainly: PARG enzymatic assay (TFMU-ADPr fluorescence). As to conditions: 1 nM enzyme, 200 μM TFMU-ADPr, read after 30 minutes. Type of test: biochemical. In outline: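 Sf21-expressed His-tagged human PARG (1 nM) preincubated 15 min with compound (8-point series, 0.5% DMSO) in pH 7.4 phosphate/KCl/β-mercaptoethanol buffer, then 200 μM TFMU-ADPr added. Fluorescence (ex 380/em 535 nm) read after 30 min; IC50 from 4-parameter logistic fit, no-enzyme control as bottom.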

Test [2] has as its target human PARG (PARG-NanoLuc fusion in HEK293T cells) (Homo sapiens (Human), UniProt Q86W56). The experiment in a line: PARG NanoBRET-based cellular target engagement assay. The format is cell-based. As to conditions: HEK293T cells transfected with PARG-NanoLuc, NanoBRET probe 0.89 μM, 2 hours; read-out: PARG TE IC50. Summed up: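 HEK293T cells transiently expressing full-length human PARG with C-terminal NanoLuc, plated 24 h, then given compound (8-point series, 0.5% DMSO) for 15 min at room temperature. NanoBRET tracer added at 0.89 μM final, 2 h at 37° C.; BRET ratio (460/645 nm) fitted by 4-parameter logistic to give IC50.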
On the technique in general: In BRET a luciferase serves as donor, and the signal depends on an acceptor being close.

The subject of test [3] is RMUG-S. The experiment in a line: Modified cell proliferation assay (CellTiter-Glo), RMUG-S, Examples 12-44. Type of test: cell-based. The conditions noted are these: Examples 12-44: modified protocol, 384-well, 300 cells per well, 120 h; highest concentration tested 9000 nM; read-out: RMUG-S GI50 (high PARG dependency). The procedure:
(§1) The cell proliferation assay protocol was modified and used for RMUG-S for Examples 12-44, and subsequently used to test Examples 1-44 in the NCI-H1650 cell line.
(§2) NCI-H1650 (ATCC, #CRL-5883) or RMUG-S were seeded on day 1 at 300 cells per well in a 384-well plate (Greiner, #781080) that assure assay linearity and optimal signal intensity in 25 μL of RPMI1640 media (Pan Biotech, #P04-22100) containing 10% FCS (Capricorn, #FBS-11A; Lot. CP22-5141) and 1% Glutamine (Pan Biotech, #P04-80100). After incubation for 24 h in humidified chambers at 37° C./5% CO2, compounds/DMSO were dispensed at different concentrations using an Echo 520 (Beckman Coulter). Cells were further incubated for 120 h at 37° C. and 5% CO2. Cells treated with the compound vehicle DMSO were used as negative controls and cells treated with 10 μM Staurosporine (LC Laboratories, #S-9300) served as positive controls.
(§3) At day 6 the CellTiter Glo Reagent was prepared according to the instructions of the kit (Promega Inc.): Reagent was mixed 1:1 with cell culture medium. Thereon, mixture and assay plates were equilibrated at room temperature for 20 min. Equal volumes of the reagent-medium-mixture were added to the volume of culture medium present in each well. The plates were mixed at […] for 2 minutes on an orbital shaker (Timix5, Edmund Buehler GmbH). The microplates were then incubated at room temperature for 10 minutes for stabilization of the luminescent signal. Following incubation, the luminescence was recorded on a Victor X5 microplate reader (Perkin Elmer) using a 200 ms integration time. The data was then analyzed with Excel using the XLFIT Plugin (dose response Fit 205) for determination of the concentration necessary for half-maximal inhibition (i.e. the inflection point of the fitted curve).
(§4) As quality control the Z′-factor was calculated from 16 positive and negative control values. Only assay results showing a Z′-factor≥0.5 were used for further analysis.
A general note: Cellular ATP, detected with luciferase, serves as a proxy for viable cell number.

Test [4] relates to NCI-H1650. The experiment in a line: Modified cell proliferation assay (CellTiter-Glo), NCI-H1650. Type of test: cell-based. The conditions noted are these: modified protocol, 384-well, 300 cells per well, 120 h, highest concentration tested 30000 nM, read-out: NCI-H1650 GI50 (high PARG dependency). The procedure: as §1, §2, §3, §4

Where two headings read alike, the source gives them in different places.

Sequence of Recombinant His-tagged human PARG protein (Q86W56 whole entry): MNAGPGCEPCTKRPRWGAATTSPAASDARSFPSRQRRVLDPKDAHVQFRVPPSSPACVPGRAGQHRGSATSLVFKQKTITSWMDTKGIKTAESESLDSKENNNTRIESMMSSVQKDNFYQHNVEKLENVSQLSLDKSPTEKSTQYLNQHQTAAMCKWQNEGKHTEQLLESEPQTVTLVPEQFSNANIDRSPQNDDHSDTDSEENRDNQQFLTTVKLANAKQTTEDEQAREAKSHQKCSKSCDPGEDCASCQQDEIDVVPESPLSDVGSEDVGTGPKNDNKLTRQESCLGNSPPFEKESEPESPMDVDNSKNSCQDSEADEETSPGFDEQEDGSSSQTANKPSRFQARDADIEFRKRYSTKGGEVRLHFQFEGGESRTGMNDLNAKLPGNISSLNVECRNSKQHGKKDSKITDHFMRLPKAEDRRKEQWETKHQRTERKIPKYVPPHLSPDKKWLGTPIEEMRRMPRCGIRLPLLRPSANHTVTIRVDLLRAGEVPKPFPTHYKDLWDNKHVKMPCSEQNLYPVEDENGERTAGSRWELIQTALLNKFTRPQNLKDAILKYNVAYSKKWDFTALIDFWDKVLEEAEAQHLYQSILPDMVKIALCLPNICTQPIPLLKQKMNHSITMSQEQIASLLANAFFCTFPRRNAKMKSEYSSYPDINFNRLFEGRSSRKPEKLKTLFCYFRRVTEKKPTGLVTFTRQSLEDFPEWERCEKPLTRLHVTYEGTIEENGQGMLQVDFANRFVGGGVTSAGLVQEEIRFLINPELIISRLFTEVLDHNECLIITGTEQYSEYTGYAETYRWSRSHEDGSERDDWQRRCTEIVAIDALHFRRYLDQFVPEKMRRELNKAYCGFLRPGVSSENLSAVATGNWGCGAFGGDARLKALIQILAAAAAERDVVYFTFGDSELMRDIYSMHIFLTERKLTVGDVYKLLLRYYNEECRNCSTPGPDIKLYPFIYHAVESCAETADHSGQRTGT
Sequence of human PARG (PARG-NanoLuc fusion in HEK293T cells) (Q86W56 whole entry, the tested form may be a part): as the sequence (Q86W56 whole entry) above

One may read the IC50 as the point on the concentration scale where inhibition reaches its midpoint. The term GI50 denotes the concentration at which growth is held to half of that of the control. For the molecule `CO/N=c1\[nH]c2c(N3CCN(C)[C@H](C)C3)cc(S(=O)(=O)NC3(C)CC3)cc2c(=O)n1Cc1cnn(C)c1` [Example 21, (2E)-2-methoxyimino-N-(1-methylcyclopropyl)-3-[(1-methylpyrazol-4-yl)methyl]-4-oxo-8-[(3R)-3,4-dimethylpiperazin-1-yl]-1H-quinazoline-6-sulfonamide], the figures for the IC50 in test [1] and in test [2] were less than 30 nM and 30 to 99 nM, respectively. The GI50 in test [3] lay in the range of 500 to 2000 nM; in test [4] (Homo sapiens, NCI-H1650) it was 500 to 2000 nM.

Regarding `CO/N=c1\[nH]c2c(C3=C[C@@H](C)N(C)CC3)cc(S(=O)(=O)NC3(C)CC3)cc2c(=O)n1Cc1cnn(C)c1` [Example 28, (2E)-2-methoxyimino-N-(1-methylcyclopropyl)-3-[(1-methylpyrazol-4-yl)methyl]-4-oxo-8-[(2R)-1,2-dimethyl-3,6-dihydro-2H-pyridin-4-yl]-1H-quinazoline-6-sulfonamide/(2E)-2-methoxyimino-N-(1-methylcyclopropyl)-3-[(1-methylpyrazol-4-yl)methyl]-4-oxo-8-[(6R)-1,6-dimethyl-3,6-dihydro-2H-pyridin-4-yl]-1H-quinazoline-6-sulfonamide], the IC50 in test [1] and in test [2] was less than 30 nM in each case. Moreover, the GI50 is 500 to 2000 nM in test [3] and less than 500 nM in test [4].

For the molecule `CO/N=c1\[nH]c2c(C3=C[C@@H](C)N(C(C)=O)CC3)cc(S(=O)(=O)NC3(C)CC3)cc2c(=O)n1Cc1cnn(C)c1` [Example 29, (2E)-2-methoxyimino-N-(1-methylcyclopropyl)-3-[(1-methylpyrazol-4-yl)methyl]-4-oxo-8-[(2R)-1-acetyl-2-methyl-3,6-dihydro-2H-pyridin-4-yl]-1H-quinazoline-6-sulfonamide/(2E)-2-methoxyimino-N-(1-methylcyclopropyl)-3-[(1-methylpyrazol-4-yl)methyl]-4-oxo-8-[(6R)-1-acetyl-6-methyl-3,6-dihydro-2H-pyridin-4-yl]-1H-quinazoline-6-sulfonamide], the IC50 in test [1] and in test [2] was less than 30 nM throughout. Besides, the 50% growth inhibitory concentration (GI50) in test [3] and in test [4] was 500 to 2000 nM each time.

`CO/N=c1\[nH]c2c(C3CCN(C(C)=O)[C@H](C)C3)cc(S(=O)(=O)NC3(C)CC3)cc2c(=O)n1Cc1cnn(C)c1` (stereo partly drawn) [Example 26, (2E)-2-methoxyimino-N-(1-methylcyclopropyl)-3-[(1-methylpyrazol-4-yl)methyl]-4-oxo-8-[(2R)-1-acetyl-2-methyl-4-piperidyl]-1H-quinazoline-6-sulfonamide]: the IC50 in test [1] and in test [2] was less than 30 nM throughout. Further, the GI50 in test [3] lay in the range of 2000 to 9000 nM; in test [4] (Homo sapiens, NCI-H1650), 500 to 2000 nM.

On to `CO/N=c1\[nH]c2c(C3CCN(C)[C@H](C)C3)cc(S(=O)(=O)NC3(C)CC3)cc2c(=O)n1Cc1cnn(C)c1` (stereo partly drawn) [Example 25, (2E)-2-methoxyimino-N-(1-methylcyclopropyl)-3-[(1-methylpyrazol-4-yl)methyl]-4-oxo-8-[(2R)-1,2-dimethyl-4-piperidyl]-1H-quinazoline-6-sulfonamide], for which the IC50 in test [1] is less than 30 nM; in test [2] it was 30 to 99 nM. In addition, the GI50 in test [3] fell in the range of 500 to 2000 nM; in test [4] (Homo sapiens, NCI-H1650), 500 to 2000 nM.

On to `CO/N=c1\[nH]c2c(C3=C[C@@H](C)N(C(=O)C4(C)CC4)CC3)cc(S(=O)(=O)NC3(C)CC3)cc2c(=O)n1Cc1cnn(C)c1` [Example 30, (2E)-2-methoxyimino-N-(1-methylcyclopropyl)-3-[(1-methylpyrazol-4-yl)methyl]-4-oxo-8-[(2R)-2-methyl-1-(1-methylcyclopropanecarbonyl)-3,6-dihydro-2H-pyridin-4-yl]-1H-quinazoline-6-sulfonamide/(2E)-2-methoxyimino-N-(1-methylcyclopropyl)-3-[(1-methylpyrazol-4-yl)methyl]-4-oxo-8-[(6R)-6-methyl-1-(1-methylcyclopropanecarbonyl)-3,6-dihydro-2H-pyridin-4-yl]-1H-quinazoline-6-sulfonamide], for which the IC50 in test [1] and in test [2] was less than 30 nM in each case. For the same molecule, the GI50 in test [3] and in test [4] was less than 500 nM each time.

Turning to `CO/N=c1\[nH]c2c(N3CCN(C(=O)N4CCCC4)[C@H](C)C3)cc(S(=O)(=O)NC3(C)CC3)cc2c(=O)n1Cc1cnn(C)c1` [Example 40, (R,E)-2-(methoxyimino)-3-((1-methyl-1H-pyrazol-4-yl)methyl)-8-(3-methyl-4-(pyrrolidine-1-carbonyl)piperazin-1-yl)-N-(1-methylcyclopropyl)-4-oxo-1,2,3,4-tetrahydroquinazoline-6-sulfonamide], the IC50 in test [1] and in test [2] was less than 30 nM in each case. Moreover, the GI50 in test [4] (Homo sapiens, NCI-H1650) is less than 500 nM.

With `CO/N=c1\[nH]c2c(C3CCN[C@H](C)C3)cc(S(=O)(=O)NC3(C)CC3)cc2c(=O)n1Cc1cnn(C)c1` (stereo partly drawn) [Example 24, (2E)-2-methoxyimino-N-(1-methylcyclopropyl)-3-[(1-methylpyrazol-4-yl)methyl]-4-oxo-8-[(2R)-2-methyl-4-piperidyl]-1H-quinazoline-6-sulfonamide], the values for the IC50 in test [1] and in test [2] were less than 30 nM and 100 to 1000 nM, respectively. Also, the GI50 in test [3] is 2000 to 9000 nM; in test [4] (Homo sapiens, NCI-H1650), greater than 2000 nM.

As to `CO/N=c1\[nH]c2c(Cl)cc(S(=O)(=O)NC3(C)CC3)cc2c(=O)n1Cc1cnn(C)c1` [Example 4, 8-chloro-2-methoxyimino-N-(1-methylcyclopropyl)-3-[(1-methylpyrazol-4-yl)methyl]-4-oxo-1H-quinazoline-6-sulfonamide], the IC50 is less than 30 nM in test [1] and 30 to 99 nM in test [2]. Also, in test [4] (Homo sapiens, NCI-H1650), the GI50 is greater than 2000 nM.

As to `CO/N=c1\[nH]c2c(-c3ccc(CN)cc3)cc(S(=O)(=O)NC3(C)CC3)cc2c(=O)n1Cc1cnn(C)c1` [Example 17, (E)-8-(4-(aminomethyl)phenyl)-2-(methoxyimino)-3-((1-methyl-1H-pyrazol-4-yl)methyl)-N-(1-methylcyclopropyl)-4-oxo-1,2,3,4-tetrahydroquinazoline-6-sulfonamide], the IC50 in test [1] is 30 to 99 nM; in test [2], 100 to 1000 nM. Besides, the GI50 in test [4] (Homo sapiens, NCI-H1650) was greater than 2000 nM.

Take `CO/N=c1\[nH]c2c(C3CCN(C(=O)C4(C)CC4)[C@H](C)C3)cc(S(=O)(=O)NC3(C)CC3)cc2c(=O)n1Cc1cnn(C)c1` (stereo partly drawn) [Example 27, (2E)-2-methoxyimino-N-(1-methylcyclopropyl)-3-[(1-methylpyrazol-4-yl)methyl]-4-oxo-8-[(2R)-2-methyl-1-(1-methylcyclopropanecarbonyl)-4-piperidyl]-1H-quinazoline-6-sulfonamide]: the IC50 in test [1] and in test [2] was less than 30 nM in each case. The GI50 was less than 500 nM in test [3] and less than 500 nM in test [4] (Homo sapiens, NCI-H1650).

The record behind these values is US20260042754A1, “Substituted Bicyclic Heteroaryl Sulfonamide Derivatives for the Treatment of Cancer” (NODUS ONCOLOGY LIMITED, priority 2022, published 2026).
